Reference: patent publication US9074014B2 (Ipsen Pharma S.A.S., priority 2008, dated 2015)
Where a SMILES comes first, the peptide text is derived from it. [ ]: non-standard residue; d: D form. Ac6c = NC1(C(=O)O)CCCCC1; Ac5c = NC1(C(=O)O)CCCC1; Aib = CC(C)(N)C(=O)O

Assays:
[1] = Human plasma half-life assay; assay type: in vitro ADME; conditions: human plasma, 37° C., LC-MS; read-out: Human Plasma T½ (converted)
[2] = biological target: T1, human recombinant GIP receptor (Homo sapiens, UniProt P48546); test: In vitro hGIP receptor binding assay ([125I]GIP displacement, CHO-K1 membranes)
T1 construct: expressed in transfected cells; host or cells: CHO-K1 clonal cells (membranes)
T1 sequence (P48546 22-466): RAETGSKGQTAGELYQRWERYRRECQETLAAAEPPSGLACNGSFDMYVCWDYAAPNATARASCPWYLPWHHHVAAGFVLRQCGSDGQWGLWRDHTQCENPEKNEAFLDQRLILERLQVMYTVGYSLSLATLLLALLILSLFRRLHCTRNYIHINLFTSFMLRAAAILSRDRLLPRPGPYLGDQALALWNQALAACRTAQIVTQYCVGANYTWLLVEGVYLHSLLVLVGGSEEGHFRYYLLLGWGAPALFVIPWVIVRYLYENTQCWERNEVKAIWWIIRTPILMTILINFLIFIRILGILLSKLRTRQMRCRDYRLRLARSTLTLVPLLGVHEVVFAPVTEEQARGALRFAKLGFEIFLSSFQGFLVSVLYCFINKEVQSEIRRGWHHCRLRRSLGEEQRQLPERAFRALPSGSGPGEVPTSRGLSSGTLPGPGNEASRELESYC
Source text: A. In Vitro hGIP Receptor Binding Assay

[3] = Rat plasma half-life assay; assay type: in vitro ADME; conditions: rat plasma, 37° C., LC-MS; read-out: Rat Plasma T½ (converted)

With `CC[C@H](C)[C@H](NC(=O)[C@H](CO)NC(=O)[C@H](Cc1ccc(O)cc1)NC(=O)[C@H](CC(=O)O)NC(=O)C(C)(C)NC(=O)[C@@H](NC(=O)[C@H](Cc1ccccc1)NC(=O)[C@@H](NC(=O)CNC(=O)[C@H](CCC(=O)O)NC(=O)C(C)(C)NC(=O)[C@@H](N)Cc1ccc(O)cc1)[C@@H](C)O)[C@@H](C)CC)C(=O)N[C@@H](C)C(=O)N[C@@H](CCSC)C(=O)N[C@@H](CC(=O)O)C(=O)N[C@@H](CCCCN)C(=O)N[C@H](C(=O)N[C@@H](Cc1c[nH]cn1)C(=O)N[C@@H](CCC(N)=O)C(=O)N[C@@H](CCC(N)=O)C(=O)N[C@@H](CC(=O)O)C(=O)N[C@@H](Cc1ccccc1)C(=O)N[C@H](C(=O)N[C@@H](CC(N)=O)C(=O)N[C@@H](Cc1c[nH]c2ccccc12)C(=O)N[C@@H](CC(C)C)C(=O)N[C@@H](CC(C)C)C(=O)N[C@@H](C)C(=O)N[C@@H](CCC(N)=O)C(=O)N[C@@H](CCCCN)C(N)=O)C(C)C)[C@@H](C)CC` [Example 17, (Aib^2, 8)hGIP(1-30)-NH2] (H-Y[Aib]EGTFI[Aib]DYSIAMDKIHQQDFVNWLLAQK-NH2; N-terminus assumed) the half-life at 0.1 mg/ml [1] was 17.4 h, the Ki [2] was 15900 pM and the half-life at 0.1 mg/ml [3] was 55 h.
Compound `CC[C@H](C)[C@H](NC(=O)[C@H](CCCCN)NC(=O)[C@H](CC(=O)O)NC(=O)C1(NC(=O)[C@H](C)NC(=O)[C@@H](NC(=O)C(C)(C)NC(=O)[C@H](Cc2ccc(O)cc2)NC(=O)[C@H](CC(=O)O)NC(=O)[C@H](CO)NC(=O)[C@@H](NC(=O)[C@H](Cc2ccccc2)NC(=O)[C@@H](NC(=O)CNC(=O)[C@H](CCC(=O)O)NC(=O)C(C)(C)NC(=O)[C@@H](N)Cc2ccc(O)cc2)[C@@H](C)O)[C@@H](C)CC)[C@@H](C)CC)CCCCC1)C(=O)N[C@@H](Cc1c[nH]cn1)C(=O)N[C@@H](CCC(N)=O)C(=O)N[C@@H](CCC(N)=O)C(=O)N[C@@H](CC(=O)O)C(=O)N[C@@H](Cc1ccccc1)C(=O)N[C@H](C(=O)N[C@@H](CC(N)=O)C(=O)N[C@@H](Cc1c[nH]c2ccccc12)C(=O)N[C@@H](CC(C)C)C(=O)N[C@@H](CC(C)C)C(=O)N[C@@H](C)C(=O)N[C@@H](CCC(N)=O)C(=O)N[C@@H](CCCCN)C(N)=O)C(C)C` [Example 38, (Aib^2, 11, A6c^14)hGIP(1-30)-NH2] (H-Y[Aib]EGTFISDY[Aib]IA[Ac6c]DKIHQQDFVNWLLAQK-NH2; N-terminus assumed) has a half-life at 0.1 mg/ml [1] of 49.1 h, a Ki [2] of 730 pM and a half-life at 0.1 mg/ml [3] greater than 54 h.
With `CCCC[C@H](NC(=O)[C@H](C)NC(=O)[C@@H](NC(=O)[C@H](CO)NC(=O)[C@H](Cc1ccc(O)cc1)NC(=O)[C@H](CC(=O)O)NC(=O)[C@H](CO)NC(=O)[C@@H](NC(=O)[C@H](Cc1ccccc1)NC(=O)[C@@H](NC(=O)CNC(=O)[C@H](CCC(=O)O)NC(=O)C1(NC(=O)[C@@H](N)Cc2ccc(O)cc2)CCCC1)[C@@H](C)O)[C@@H](C)CC)[C@@H](C)CC)C(=O)N[C@@H](CC(=O)O)C(=O)N[C@@H](CCCCN)C(=O)N[C@H](C(=O)N[C@@H](Cc1c[nH]cn1)C(=O)N[C@@H](CCC(N)=O)C(=O)N[C@@H](CCC(N)=O)C(=O)N[C@@H](CC(=O)O)C(=O)N[C@@H](Cc1ccccc1)C(=O)N[C@H](C(=O)N[C@@H](CC(N)=O)C(=O)N[C@@H](Cc1c[nH]c2ccccc12)C(=O)N[C@@H](CC(C)C)C(=O)N[C@@H](CC(C)C)C(=O)N[C@@H](C)C(=O)N[C@@H](CCC(N)=O)C(=O)N[C@@H](CCCCN)C(=O)NCC(=O)N[C@@H](CCCCN)C(=O)N[C@@H](CCCCN)C(=O)N[C@@H](CC(N)=O)C(=O)N[C@@H](CC(=O)O)C(=O)N[C@@H](Cc1c[nH]c2ccccc12)C(=O)N[C@@H](CCCCN)C(=O)N[C@@H](Cc1c[nH]cn1)C(=O)N[C@@H](CC(N)=O)C(=O)N[C@H](C(=O)N[C@H](C(=O)N[C@@H](CCC(N)=O)C(=O)O)[C@@H](C)O)[C@@H](C)CC)C(C)C)[C@@H](C)CC` [Example 40, (A5c^2, Nle^14)hGIP(1-42)-OH] the half-life at 0.1 mg/ml [1] was 7.7 h, the Ki [2] was 15900 pM and the half-life at 0.1 mg/ml [3] was 4.9 h.
`CC[C@H](C)[C@H](NC(=O)[C@H](CCCCN)NC(=O)[C@H](CC(=O)O)NC(=O)[C@H](CCSC)NC(=O)[C@H](C)NC(=O)[C@@H](NC(=O)C1(NC(=O)[C@H](Cc2ccc(O)cc2)NC(=O)[C@H](CC(=O)O)NC(=O)[C@H](CO)NC(=O)[C@@H](NC(=O)[C@H](Cc2ccccc2)NC(=O)[C@@H](NC(=O)CNC(=O)[C@H](CCC(=O)O)NC(=O)C(C)(C)NC(=O)[C@@H](N)Cc2ccc(O)cc2)[C@@H](C)O)[C@@H](C)CC)CCCC1)[C@@H](C)CC)C(=O)N[C@@H](Cc1c[nH]cn1)C(=O)N[C@@H](CCC(N)=O)C(=O)N[C@@H](CCC(N)=O)C(=O)N[C@@H](CC(=O)O)C(=O)N[C@@H](Cc1ccccc1)C(=O)N[C@H](C(=O)N[C@@H](CC(N)=O)C(=O)N[C@@H](Cc1c[nH]c2ccccc12)C(=O)N[C@@H](CC(C)C)C(=O)N[C@@H](CC(C)C)C(=O)N[C@@H](C)C(=O)N[C@@H](CCC(N)=O)C(=O)N[C@@H](CCCCN)C(N)=O)C(C)C` [Example 46, (Aib^2, A5c^11)hGIP(1-30)-NH2] (H-Y[Aib]EGTFISDY[Ac5c]IAMDKIHQQDFVNWLLAQK-NH2; N-terminus assumed) gave a half-life at 0.1 mg/ml [1] of 12.2 h, a Ki [2] of 90 pM and a half-life at 0.1 mg/ml [3] greater than 54 h.
In the case of `CC[C@H](C)[C@H](NC(=O)[C@H](CCCCN)NC(=O)[C@H](CC(=O)O)NC(=O)[C@H](CCSC)NC(=O)[C@H](C)NC(=O)[C@@H](NC(=O)C1(NC(=O)[C@H](Cc2ccc(O)cc2)NC(=O)[C@H](CC(=O)O)NC(=O)[C@H](CO)NC(=O)[C@@H](NC(=O)[C@H](Cc2ccccc2)NC(=O)[C@@H](NC(=O)CNC(=O)[C@H](CCC(=O)O)NC(=O)[C@@H](C)NC(=O)[C@@H](N)Cc2ccc(O)cc2)[C@@H](C)O)[C@@H](C)CC)CCCC1)[C@@H](C)CC)C(=O)N[C@@H](Cc1c[nH]cn1)C(=O)N[C@@H](CCC(N)=O)C(=O)N[C@@H](CCC(N)=O)C(=O)N[C@@H](CC(=O)O)C(=O)N[C@@H](Cc1ccccc1)C(=O)N[C@H](C(=O)N[C@@H](CC(N)=O)C(=O)N[C@@H](Cc1c[nH]c2ccccc12)C(=O)N[C@@H](CC(C)C)C(=O)N[C@@H](CC(C)C)C(=O)N[C@@H](C)C(=O)N[C@@H](CCC(N)=O)C(=O)N[C@@H](CCCCN)C(=O)N[C@@H](Cc1c[nH]cn1)C(N)=O)C(C)C` [Example 122, (D-Ala^2, A5c^11, His^31)hGIP(1-31)-NH2] (H-Y[dA]EGTFISDY[Ac5c]IAMDKIHQQDFVNWLLAQKH-NH2; N-terminus assumed), the Ki [2] is reported as 870 pM.
